This is an account of results in ChEMBL document CHEMBL4011601, “Synthesis and molecular docking studies of new furochromone derivatives as p38α MAPK inhibitors targeting human breast cancer MCF-7 cells” (Bioorg Med Chem, 2017).

One assay has as its target MAP kinase p38 (Homo sapiens, UniProt O15264+Q15759+Q16539+P53778). The assay is described as follows: Inhibition of p38 MAPK (unknown origin) using ATF2 as substrate measured after 15 by ELISA. Background: ELISA stands for enzyme-linked immunosorbent assay.
For assay [1], the system named is MCF7. Briefly: Antiproliferative activity against human MCF7 cells after 3 days by MTT assay. To be noted: MCF7, 72 h. The format is functional, cell-based.
Assay [2] deals with MCF7. Briefly: Potency index, ratio of Doxorubicin IC50 to compound IC50 against human MCF7 cells. In kind it is functional.
The test system of assay [3] is MCF7. The assay is described as follows: Induction of apoptosis in human MCF7 cells assessed as necrotic cells after 24 hrs by Annexin-V/propidium iodide staining based FACS analysis (reference value: 0.3%). In kind it is functional. A general note: A flow cytometer gives signals particle by particle.
Assay [4] concerns MCF7. The assay is described as follows: Cell cycle arrest in human MCF7 cells assessed as accumulation at G1 phase after 24 hrs by propidium iodide staining-based flow cytometric method (reference value: 67.2%). In kind it is functional.
Assay [5] has as its system MCF7. The assay is described as follows: Induction of apoptosis in human MCF7 cells assessed as late apoptotic cells after 24 hrs by Annexin-V/propidium iodide staining based FACS analysis (reference value: 4.3%). The format is functional.
Assay [6] relates to MCF7. The assay is described as follows: Induction of apoptosis in human MCF7 cells assessed as early apoptotic cells after 24 hrs by Annexin-V/propidium iodide staining based FACS analysis (reference value: 2.7%). The format is functional.
Assay [7] relates to MCF7. Briefly: Cell cycle arrest in human MCF7 cells assessed as accumulation at S phase after 24 hrs by propidium iodide staining-based flow cytometric method (reference value: 25.1%). The format is functional.
Assay [8] has as its system MCF7. The assay is described as follows: Cell cycle arrest in human MCF7 cells assessed as accumulation at G2 phase after 24 hrs by propidium iodide staining-based flow cytometric method (reference value: 6.4%). The format is functional.
Assay [9] concerns MCF7. The assay is described as follows: Induction of apoptosis in human MCF7 cells assessed as increase in caspase9 level at 0.007 uM after 24 hrs by ELISA. In kind it is functional.
Assay [10] has as its system MCF7. The assay is described as follows: Induction of apoptosis in human MCF7 cells assessed as increase in caspase3 level at 0.007 uM after 24 hrs by ELISA. The format is functional.
For assay [11], the system named is MCF7. The assay is described as follows: Induction of apoptosis in human MCF7 cells assessed as viable cells after 24 hrs by Annexin-V/propidium iodide staining based FACS analysis (reference value: 92.7%). The format is functional.

For the compound `COc1c2occc2c(OC)c2c(=O)c(C3=CC(c4ccc(F)cc4)NO3)c(C)oc12` (centres undefined), the IC50 on MAP kinase p38 was found to be 860 nM; in the assay on MCF7 [1], 40 nM.
On the same counts, the results for `COc1c2occc2c(OC)c2c(=O)c(-c3cc(-c4ccc(F)cc4)c(C#N)c(=N)[nH]3)c(C)oc12` are 630 nM and 20 nM.
Regarding `COc1ccc(C2C=C(c3c(C)oc4c(OC)c5occc5c(OC)c4c3=O)ON2)cc1OC` (centres undefined), the IC50 at MAP kinase p38 amounted to 1090 nM; with MCF7 [1], 50 nM.
On the same counts, the results for `COc1ccc(-c2cc(-c3c(C)oc4c(OC)c5occc5c(OC)c4c3=O)nc(=S)[nH]2)cc1OC` are 1390 nM and 50 nM.
On the same counts, the results for `COc1ccc(-c2cc(-c3c(C)oc4c(OC)c5occc5c(OC)c4c3=O)[nH]c(=N)c2C#N)cc1OC` are 310 nM and 10 nM.
On the same counts, the results for `COc1c2ccoc2cc2oc(C)c(-c3cc(-c4ccc(F)cc4)c(C#N)c(=N)[nH]3)c(=O)c12` are 190 nM and 40 nM.
In the assay with MCF7 [1], `COc1c2occc2c(OC)c2c(=O)c(-c3cc(-c4ccc(F)cc4)[nH]c(=O)n3)c(C)oc12` came in with an IC50 of 80 nM.
The same measure, in the same setting: the result for `COc1c2occc2c(OC)c2c(=O)c(C3=NN(C(C)=O)C(c4ccc(F)cc4)C3)c(C)oc12` (centres undefined) reads 150 nM.
For `COc1c2occc2c(OC)c2c(=O)c(-c3cc(-c4ccc(F)cc4)c(C#N)c(=O)[nH]3)c(C)oc12`, the “Ratio IC50” value with MCF7 [2] is 6. In the assay with MCF7 [1], this compound registered an IC50 of 100 nM.
On to `COc1c2ccoc2cc2oc(C)c(-c3cc(-c4ccc(F)cc4)c(C#N)c(=O)[nH]3)c(=O)c12`, for which the results for the IC50 at MAP kinase p38 and with MCF7 [1] were 230 nM and 30 nM, respectively.
As for `COc1ccc(C2CC(c3c(C)oc4c(OC)c5occc5c(OC)c4c3=O)=NN2C(C)=O)cc1OC` (centres undefined), the Activity came to 3.3% in the assay with MCF7 [3]; 31.2% with MCF7 [4]; 15.2% with MCF7 [5]; 17.4% in the assay with MCF7 [6]; 24.3% in the assay on MCF7 [7]; 21.2% in the assay with MCF7 [8]. Moreover, the Activity in the assay on MCF7 [9] came to 16.39 ng/mL; in the assay on MCF7 [10], 446.6 ng/mL; in the assay with MCF7 [11], 64.1%. Moreover, the IC50 worked out at 670 nM against MAP kinase p38 and 7 nM with MCF7 [1].
On to `COc1ccc(-c2cc(-c3c(C)oc4c(OC)c5occc5c(OC)c4c3=O)nc(=O)[nH]2)cc1OC`, for which, in the assay with MCF7 [1], inhibition was half-maximal at 80 nM (IC50).
`COc1c2occc2c(OC)c2c(=O)c(C3=NN(c4ccccc4)C(c4ccc(F)cc4)C3)c(C)oc12` (centres undefined): the half-maximal inhibitory concentration (IC50) against MAP kinase p38 amounted to 1090 nM; in the assay with MCF7 [1], 40 nM.
In the case of `COc1c2occc2c(OC)c2c(=O)c(C3=CC(c4ccc(F)cc4)=C4C(N)=NC=NC4N3)c(C)oc12` (centres undefined), the “Ratio IC50” value in the assay on MCF7 [2] is recorded as 3.6. Half-maximal inhibition in the assay with MCF7 [1] (IC50) required 170 nM.
With `COc1ccc(-c2cc(-c3c(C)oc4cc5occc5c(OC)c4c3=O)[nH]c(=N)c2C#N)cc1OC`, the IC50 was found to be 720 nM on MAP kinase p38 and 50 nM in the assay with MCF7 [1].
On the same counts, the results for `COc1c2occc2c(OC)c2c(=O)c(-c3cc(-c4ccc(F)cc4)[nH]c(=S)n3)c(C)oc12` are 380 nM and 20 nM.
On to `COc1ccc(-c2cc(-c3c(C)oc4cc5occc5c(OC)c4c3=O)[nH]c(=O)c2C#N)cc1OC`, for which the IC50 in the assay on MCF7 [1] came to 140 nM. This lies in the sub-micromolar range.

As a reminder, the IC50 is the concentration needed to halve the response being measured.
